# Laboratory results as given in patent US12421294B2, “Truncated epiderimal growth factor receptor (EGFRt) for transduced t cell selection” (City of Hope, priority 2009, dated 2025).
# Key:
# [1] = tested on: CD19CAR^+EGFRt^+IMPDH2dm^+ Line E cells; test: MPA resistance culture, IMPDH2dm-expressing Line E cells; assay type: cell-based, human; conditions: 1 uM MPA
# [2] = tested on: control T cell line; test: MPA resistance culture, control T cells without IMPDH2dm; assay type: cell-based, human; conditions: 1 uM MPA, control T cell line lacking IMPDH2dm
structure (smiles),measurement,setting,value
"COc1c(C)c2c(c(O)c1C/C=C(\C)CCC(=O)O)C(=O)OC2 [MPA, mycophenolic acid]",survival and/or proliferation in MPA,[1],not inhibited
same,survival and/or proliferation in MPA,[2],inhibition
